Laboratory results: PMC7773887 (Computational and Structural Biotechnology Journal, 2020)

Experiments:
[1] = molecular target: AmpC BER (Escherichia coli, UniProt A7TUE6); assay: nitrocefin hydrolysis steady-state kinetics, Lineweaver-Burk; format: biochemical
[2] = molecular target: CMY-10 (Klebsiella aerogenes, UniProt Q99QC1); assay: nitrocefin hydrolysis assay at […] inhibitor; format: biochemical; settings: read-out: % inhibition at 200 μM
Chain of CMY-10 (Q99QC1 24-382): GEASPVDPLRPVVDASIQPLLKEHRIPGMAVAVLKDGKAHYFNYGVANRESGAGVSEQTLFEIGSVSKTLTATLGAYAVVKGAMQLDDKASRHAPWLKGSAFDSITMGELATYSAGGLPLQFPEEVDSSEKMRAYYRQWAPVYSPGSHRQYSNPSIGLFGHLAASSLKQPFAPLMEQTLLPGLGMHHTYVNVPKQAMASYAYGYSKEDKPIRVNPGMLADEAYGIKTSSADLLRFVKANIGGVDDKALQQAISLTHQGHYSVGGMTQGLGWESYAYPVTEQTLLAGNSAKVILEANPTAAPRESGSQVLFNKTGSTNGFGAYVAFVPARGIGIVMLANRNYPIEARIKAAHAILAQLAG

Chain of AmpC BER (A7TUE6 20-379): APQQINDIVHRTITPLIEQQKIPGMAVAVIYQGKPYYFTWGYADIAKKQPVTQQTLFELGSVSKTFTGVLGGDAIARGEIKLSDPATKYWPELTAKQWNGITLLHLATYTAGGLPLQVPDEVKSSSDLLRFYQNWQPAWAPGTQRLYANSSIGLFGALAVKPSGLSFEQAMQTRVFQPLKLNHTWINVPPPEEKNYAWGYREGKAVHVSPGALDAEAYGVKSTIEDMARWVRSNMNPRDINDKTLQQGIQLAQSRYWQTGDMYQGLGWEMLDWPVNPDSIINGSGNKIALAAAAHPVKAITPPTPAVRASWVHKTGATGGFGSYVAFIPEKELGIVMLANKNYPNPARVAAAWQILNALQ

For `C=C1CCC[C@@H]2[C@@](C)(CCC(CCCc3ccoc3)COS(=O)(=O)O)[C@H](C)CC[C@]12C` (some centres unmarked) [Hali 5, halisulfate 5], the Ki [1] was 5.87 µM and the inhibition at 200 µM [2] was about 90%.
